According to US8586822B2, “Methods for producing a non human model for aortic aneurysm” (INSERM (Institut National de la Sante et de la Recherche …, priority 2007, dated 2013):

Tests used:
[1] = system: AAA; details: in vivo; cited from earlier work
[2] = system: CD28− mice treated with angiotensin II; experiment: CD28− mice treated with angiotensin II and trichostatin; type: in vivo, mouse; details: 1 mg/kg/day for 14 days, angiotensin II-infused CD28− mice
Procedure: Baseline blood pressure measurements were determined on 5 consecutive days. After these baseline recordings, an osmotic minipump (Alzet Model 2004; DURECT) infusing Angiotensin II (Ang II) (Sigma, St. Louis, Mo.) at a rate of 1,000 ng/kg/min was implanted s.c. and blood pressure measurements continued for 28 days to verify continuous hypertension. The animals ingested either a normal diet containing 0.4% sodium chloride or a high salt diet with 5% sodium chloride (SDS) to accentuate hypertension and kidney injury. All animals studied were between 8 and 14 wk old. The protocol followed the French Department of Agriculture and the National Institute of Health guidelines for animal care and protection. For both strains, all experiments used age- and sex-matched wild-type and genetically altered animals with similar genetic background (C57Bl/6J background). Normal C57Bl/6J and CD28 deficient animals were obtained from Charles River Laboratories. B7.1/B7.2 (CD80/CD86) deficient animals were obtained from Dr. Benoit Salomon (Université Pierre et Marie Curie-CNRS U7087 laboratory, Paris). Anti-pan-TGF-beta antibody (clone 2G7) was administrated thrice a week i.p. at the dose of 500 μg/mouse for two weeks, then at the dose of 150 μg/mouse for the following two weeks. […]

| SMILES | effects in AAA [1] | aneurysm [2] |
| --- | --- | --- |
| CC[C@H]1OC(=O)[C@H](C)[C@@H](O[C@H]2C[C@@](C)(OC)[C@@H](O)[C@H](C)O2)[C@H](C)[C@@H](O[C@@H]2O[C@H](C)C[C@H](N(C)C)[C@H]2O)[C@](C)(O)C[C@@H](C)/C(=N\OCOCCOC)[C@H](C)[C@@H](O)[C@]1(C)O [roxithromycin] | modest effects | – |
| CC(/C=C/C(=O)NO)=C\[C@@H](C)C(=O)c1ccc(N(C)C)cc1 [trichostatin] | – | prevented aneurysm |
